In US5929027A, “Physiologically active polypeptide-containing pharmaceutical composition” (priority 1991, dated 1999):

Key:
in vivo = details: male, Beagle, dog, serum, 1 mg, Maximum blood concentration of human calcitonin in average (pg/ml), sublingual rapidly soluble composition
Description: Each one of the test material was administered by a sublingual route to a male Beagle dog which fasted over-night, and the blood was collected at intervals (after 10, 20, 30, 45 and 60 minutes). After the serum was separated, the calcium concentration in serum was measured with Calcium C kit (manufactured by Wako Junyaku K. K., Japan) (n=3).
In the same manner as in Experiment 8, the test material was administered to the dog, and the blood was collected at intervals. After the serum was separated, the human calcitonin concentration in serum was measured by RIA.

[1] = test system: calcium and phosphur in blood; assay: Experiment 11: blood calcium and phosphur concentration after sublingual rapidly soluble composition; assay type: in vivo; details: Beagle dog, tartaric acid 10 w/v % + S-570 2 w/v %, FIG. 8
Source text: The results are shown in the accompanying FIG. 8.

[2] = Beagle dog, sublingual, tartaric acid 10 w/v % + S-570 2 w/v %, FIG. 8

With CC[C@H](C)[C@H](NC(=O)[C@H](C)NC(=O)[C@@H](NC(=O)[C@H](CCC(N)=O)NC(=O)[C@@H]1CCCN1C(=O)[C@H](Cc1ccccc1)NC(=O)[C@@H](NC(=O)[C@H](Cc1c[nH]cn1)NC(=O)[C@H](Cc1ccccc1)NC(=O)[C@H](CCCCN)NC(=O)[C@H](CC(N)=O)NC(=O)[C@H](Cc1ccccc1)NC(=O)[C@H](CC(=O)O)NC(=O)[C@H](CCC(N)=O)NC(=O)[C@@H](NC(=O)[C@H](Cc1ccc(O)cc1)NC(=O)[C@@H](NC(=O)CNC(=O)[C@H](CC(C)C)NC(=O)[C@H](CCSC)NC(=O)[C@@H]1CSSC[C@H](N)C(=O)NCC(=O)N[C@@H](CC(N)=O)C(=O)N[C@@H](CC(C)C)C(=O)N[C@@H](CO)C(=O)N[C@@H]([C@@H](C)O)C(=O)N1)[C@@H](C)O)[C@@H](C)O)[C@@H](C)O)[C@@H](C)O)C(=O)NCC(=O)N[C@H](C(=O)NCC(=O)N[C@@H](C)C(=O)N1CCC[C@H]1C(N)=O)C(C)C [human calcitonin] the Cmax (in vivo; S-970 1.0 w/v %, citric acid 2.0 w/v %) was 0.086 ng/mL, the Cmax (in vivo; S-970 2.5 w/v %, citric acid 5.0 w/v %) was 0.191 ng/mL and the Cmax (in vivo; S-970 5.0 w/v %, citric acid 10.0 w/v %) was 1.12 ng/mL. For the same compound, the Cmax (in vivo; S-970 10.0 w/v %, citric acid 20.0 w/v %) was 1.65 ng/mL, the “concentration of calcium in blood” value [1] was “lowered” and the “concentration of phosphur in blood” value [1] was “lowered”. For the same compound, the “blood human calcitonin concentration” value [2] was “increase”.
